Test results reported in patent publication US20260001898A1, “Heteroaryl compounds as inhibitors of TYK2/JAK1, composition and application thereof” (Accro Bioscience (HK) Limited, priority 2022, published 2026).

Tested on: IFNα induced TYK2/JAK1 mediated STAT activation
Experiment: Luciferase assay in L929 ISRE cells stimulated with IFN-α
Format: cell-based
Details: Mus musculus, IFN-α 100 ng/mL; for inhibition at 0.05 µM: 50 nM compound, read-out: Inhibitory activity % (50 nM); for inhibition at 0.2 µM: 200 nM compound, read-out: Inhibitory activity % (200 nM); for inhibition at 1 µM: 1000 nM compound, read-out: Inhibitory activity % (1000 nM)
Procedure: • 1. L929 ISRE cells (5000 cells/well) were seeded on 96-well plates and incubated overnight at room temperature-; • 2. The cells were pretreated by adding different concentrations (10 nM, 50 nM, 100 nM, 200 nM or 1000 nM) of the test compounds for 2 hours; • 3. Added IFN-α (100 ng/mL) to stimulate cells for 6 hours; • 4. Removed the upper medium, add PBS (100 μL) and washed, then removed PBS; • 5. Added PLB lysis solution (50 μL) to each well, shook the well for 15 minutes; • 6. Transferred PLB lysis solution (30 μL) to a new 96-well whiteboard, added LAR II reagent (LAR II), then quickly read the 450 nm OD value with a plate washer; • 7. Added Stop & Glo reagent (30 μL), then read the 450 nm OD value using the plate washer. • 8. The final result was the OD value in step 6/OD value in step 7.

SMILES	inhibition at 0.05 µM	inhibition at 0.2 µM	inhibition at 1 µM
COc1c(Nc2cc(NC(=O)C3CC3)nnc2C(N)=O)ncnc1-c1cc(P(=O)(C2CC2)C2CC2)n(C)n1 [Compound A3, 6-(cyclopropanecarboxamido)-4-((6-(5-(dicyclopropylphosphoryl)-1-methyl-1H-pyrazol-3-yl)-5-methoxypyrimidin-4-yl)amino)pyridazine-3-carboxamide]	34%	39%	71%
COc1c(Nc2cc(Nc3ccccn3)nnc2C(N)=O)cccc1-c1cc(P(=O)(C2CC2)C2CC2)n(C)n1 [Compound A4, 4-((3-(5-(dicyclopropylphosphoryl)-1-methyl-1H-pyrazol-3-yl)-2-methoxyphenyl)amino)-6-(pyridin-2-ylamino)pyridazine-3-carboxamide]	61%	93%	99%
COc1ccc(Nc2cc(Nc3cccc(-c4cc(P(=O)(C5CC5)C5CC5)n(C)n4)c3OC)c(C(N)=O)nn2)nc1 [Compound A5]	91%	97%	99%
CCP(=O)(CC)c1cc(-c2cccc(Nc3cc(NC(=O)C4CC4)nnc3C(N)=O)c2OC)nn1C [Compound A6, 6-(cyclopropanecarboxamido)-4-((3-(5-(diethylphosphoryl)-1-methyl-1H-pyrazol-3-yl)-2-methoxyphenyl)amino)pyridazine-3-carboxamide]	23%	28%	96%
COc1c(Nc2cc(NC(=O)C3CC3)nnc2C(N)=O)cccc1-c1ncc(P(C)(C)=O)cn1 [Compound A7, 6-(cyclopropanecarboxamido)-4-((3-(5-(dimethylphosphoryl)pyrimidin-2-yl)-2-methoxyphenyl)amino)pyridazine-3-carboxamide]	18%	25%	64%
COc1c(Nc2cc(N3CCCC3)nnc2C(N)=O)cccc1-c1cc(P(=O)(C2CC2)C2CC2)n(C)n1 [Compound A11, 4-((3-(5-(dicyclopropylphosphoryl)-1-methyl-1H-pyrazol-3-yl)-2-methoxyphenyl)amino)-6-(pyrrolidin-1-yl)pyridazine-3-carboxamide]	6%	86%	95%
COc1c(-c2cc(P(=O)(C3CC3)C3CC3)n(C)n2)ccnc1Nc1cc(N)nnc1C(N)=O [Compound A13, 6-Amino-4-((4-(5-(dicyclopropylphosphoryl)-1-methyl-1H-pyrazol-3-yl)-3-methoxypyridin-2-yl)amino)pyridazine-3-carboxamide]	9%	71%	95%
CCP(=O)(CC)c1cnc(-c2cccc(Nc3cc(NC(=O)C4CC4)nnc3C(N)=O)c2OC)nc1 [Compound A14]	–	23%	76%
COc1c(-c2cc(P(=O)(C3CC3)C3CC3)n(C)n2)ccnc1Nc1cc(NC(=O)C2CC2)nnc1C(N)=O [Compound A18, 6-(cyclopropanecarboxamido)-4-((4-(5-(dicyclopropylphosphoryl)-1-methyl-1H-pyrazol-3-yl)-3-methoxypyridin-2-yl)amino)pyridazine-3-carboxamide]	62%	79%	79%
COc1c(Nc2nc(NC(=O)C3CC3)ncc2C(N)=O)cccc1-c1cc(P(=O)(C2CC2)C2CC2)n(C)n1 [Compound A19, 2-(cyclopropanecarboxamido)-4-((3-(5-(dicyclopropylphosphoryl)-1-methyl-1H-pyrazol-3-yl)-2-methoxyphenyl)amino)pyrimidine-5-carboxamide]	–	28%	71%
CNC(=O)Nc1cc(Nc2cccc(-c3cc(P(=O)(C4CC4)C4CC4)n(C)n3)c2OC)c(C(N)=O)nn1 [Compound A21]	16%	39%	74%
COC(=O)Nc1cc(Nc2cccc(-c3cc(P(=O)(C4CC4)C4CC4)n(C)n3)c2OC)c(C(N)=O)nn1 [Compound A23]	–	38%	85%
[2H]C([2H])([2H])n1nc(-c2cccc(Nc3cc(NC(=O)C4CC4)nnc3C(N)=O)c2OC)cc1P(=O)(C1CC1)C1CC1 [Compound A24, 6-(cyclopropanecarboxamido)-4-((3-(5-(dicyclopropylphosphoryl)-1-(methyl-d3)-1H-pyrazol-3-yl)-2-methoxyphenyl)amino)pyridazine-3-carboxamide]	39%	90%	95%
COc1c(Nc2cc(Nc3ccccn3)nnc2C(N)=O)cccc1-c1cc(P(C)(C)=O)n(C)n1 [Compound A26]	–	–	80%
COc1ccc(Nc2cc(Nc3cccc(-c4cc(P(C)(C)=O)n(C)n4)c3OC)c(C(N)=O)nn2)nc1 [Compound A30]	14%	58%	90%
COc1c(Nc2cc(Nc3ccc(C#N)cn3)nnc2C(N)=O)cccc1-c1cc(P(C)(C)=O)n(C)n1 [Compound A31]	9%	54%	75%
COc1c(Nc2cc(Nc3ccc(F)cn3)nnc2C(N)=O)cccc1-c1cc(P(C)(C)=O)n(C)n1 [Compound A33]	45%	62%	81%

SMILES	inhibition at 0.05 µM	inhibition at 0.2 µM	inhibition at 1 µM
COc1c(Nc2cc(Nc3cccc(C#N)n3)nnc2C(N)=O)cccc1-c1cc(P(=O)(C2CC2)C2CC2)n(C)n1 [Compound A34]	17%	67%	95%
COc1c(Nc2cc(Nc3ncccn3)nnc2C(N)=O)cccc1-c1cc(P(=O)(C2CC2)C2CC2)n(C)n1 [Compound A38]	36%	66%	89%
COc1c(Nc2cc(Nc3cnccn3)nnc2C(N)=O)cccc1-c1cc(P(=O)(C2CC2)C2CC2)n(C)n1 [Compound A39]	59%	78%	97%
COc1c(Nc2cc(Nc3ccncn3)nnc2C(N)=O)cccc1-c1cc(P(=O)(C2CC2)C2CC2)n(C)n1 [Compound A40]	61%	80%	96%
[2H]C([2H])([2H])n1ccc(Nc2cc(Nc3cccc(-c4cc(P(=O)(C5CC5)C5CC5)n(C)n4)c3OC)c(C(N)=O)nn2)n1 [Compound A41]	55%	90%	95%
CCn1ccc(Nc2cc(Nc3cccc(-c4cc(P(=O)(C5CC5)C5CC5)n(C)n4)c3OC)c(C(N)=O)nn2)n1 [Compound A42]	76%	90%	92%
COc1c(Nc2cc(Nc3ncccc3C#N)nnc2C(N)=O)cccc1-c1cc(P(=O)(C2CC2)C2CC2)n(C)n1 [Compound A43]	0%	18%	64%
COc1c(Nc2cc(NC(=O)C3C[C@H]3F)nnc2C(N)=O)cccc1-c1cc(P(=O)(C2CC2)C2CC2)n(C)n1 (stereo partly drawn) [Compound A47]	8%	19%	62%
COc1c(Nc2cc(NC(=O)C3CC3)nnc2C(N)=O)cccc1-c1cc(P(=O)(C2CC2)C2CC2)[nH]n1 [Compound A48, 6-(cyclopropanecarboxamido)-4-((3-(5-(dicyclopropylphosphoryl)-1H-pyrazol-3-yl)-2-methoxyphenyl)amino)pyridazine-3-carboxamide]	17%	56%	76%
COc1c(Nc2cc(Nc3cc(C)ccn3)nnc2C(N)=O)cc(F)cc1-c1cc(P(C)(C)=O)n(C)n1 [Compound A51, 4-((3-(5-(dimethylphosphoryl)-1-methyl-1H-pyrazol-3-yl)-5-fluoro-2-methoxyphenyl)amino)-6-((4-methylpyridin-2-yl)amino)pyridazine-3-carboxamide]	55%	82%	86%
COc1c(Nc2cc(Nc3cc(C)ccn3)nnc2C(N)=O)cccc1-c1cc(P(C)(C)=O)n(C2CC2)n1 [Compound A52]	–	9%	63%
COc1c(-c2cc(P(C)(C)=O)n(C)n2)ccnc1Nc1cc(Nc2cc(C)ccn2)nnc1C(N)=O [Compound A55, 4-((4-(5-(dimethylphosphoryl)-1-methyl-1H-pyrazol-3-yl)-3-methoxypyridin-2-yl)amino)-6-((4-methylpyridin-2-yl)amino)pyridazine-3-carboxamide]	34%	63%	90%
[2H]C([2H])([2H])n1nc(-c2cc(F)cc(Nc3cc(Nc4cc(C)ccn4)nnc3C(N)=O)c2OC)cc1P(C)(C)=O [Compound A56]	31%	70%	95%
COc1c(Nc2cc(Nc3cc(C)ccn3)nnc2C(N)=O)cncc1-c1cc(P(C)(C)=O)n(C2CC2)n1 [Compound A58]	–	–	86%
[2H]C([2H])([2H])n1nc(-c2cccc(Nc3cc(Nc4cnccn4)nnc3C(N)=O)c2OC)cc1P(=O)(C1CC1)C1CC1 [Compound A59]	–	–	86%
COc1c(-c2cc(P(C)(C)=O)n(C3CC3)n2)ccnc1Nc1cc(Nc2cc(C)ccn2)nnc1C(N)=O [Compound A60]	–	–	66%
